According to US12721912B2, “Radiopharmaceutical compositions for actinium in targeted radionuclide therapy” (Curium US LLC, priority 2024, dated 2026):
Where two headings read alike, the source gives them in different places.

Experiments:
[1] = Metal scavenger (DTPA) formulations: radiochemical stability by radio-TLC at 40° C. (Table 17); assay type: physicochemical; conditions: 11.3 mg/ml sodium ascorbate formulation, 0.0005-0.01 mg/ml DTPA
Description: The mixture was then divided into four samples which were diluted with suitable amount WFI and DTPA solution to achieve concentrations of 0.0005 mg/ml, 0.001 mg/ml, 0.005 mg/ml, and 0.01 mg/ml of DTPA in the final formulations. […] The samples were kept at 40° C.

[2] = Process A / process B injection stored at 5, 22.5, 32.5 and 40° C.: radiochemical purity by radio-TLC (Tables 21, 22); assay type: physicochemical; conditions: 5-40° C.
Description: The radio-TLC method was performed as follows: 5 μl or 10 μl of the sample was spotted onto the application line (1.5 cm from the lower edge of the plate) of a TLC plate (Merck Silica Gel 60 F254, plate size 20×100 mm). The TLC plate was developed in a TLC chamber using 0.1 M citric acid (adjusted to pH 5) as mobile phase. The plate was removed from the chamber when the eluent front reached 7.5 cm distance from the application line. The plates were analyzed with a radio-TLC scanner after secular equilibrium between ^225Ac and daughter nuclides was reached (minimum of 7 hours). […]
In process B, radiolabeling is performed in 11.3 mg/ml sodium ascorbate solution and the 0.04 M HCl is neutralized by adding 1 ml of 0.04 M NaOH solution into the reactor prior to labeling. The final formulation in process B is prepared to an intended radioactivity concentration by diluting with 11.3 mg/ml sodium ascorbate solution.
To compare the processes, ^225Ac-PSMA I&T injection was prepared at around 1 mCi scale using both processes. […] Radioactivity concentration was 468 kBq/ml in process A and 969 kBq/ml in process B. […]
The purity of ^225Ac-PSMA I&T samples was analyzed by the radio-TLC and HPLC fraction collection methods described previously at different time points.

[3] = system: patients with mCRPC; conditions: cited from earlier work
[4] = cited from earlier work
[5] = system: patients with mCRPC; conditions: cited from earlier work; remark: listed apart in the source
[6] = subgroup of 11 patients with prior ^177Lu-PSMA treatment
[7] = subgroup with prior ^177Lu-PSMA radioligand therapy

For “(25)-2-[[(1S)-1-carboxylato-5-[[8-[[(5R)-5-carboxylato-5-[[(2R)-2-[[(2R)-2-[[(4R)-4-carboxylato-4-[4,7,10-tris(carboxylatomethyl)-1,4,7,10-tetrazacyclododec-1-yl]butanoyl]amino]-3-(4-hydroxy-3-iodophenyl)propanoyl]amino]-3-phenylpropanoyl]amino]pentyl]amino]-8-oxooctanoyl]amino]pentyl]carbamoylamino]pentanedioate; hydron; actinium-225(3+) [^225Ac-PSMA I&T]”, the “Effect of DTPA on the stability” value [1] is listed as “significantly reduce the stability”, the “Radiochemical purity by the radio-TLC method after 120-hour time point” value [2] is listed as “greater than 98%” and the “Biochemical response PSA50” value ([3]; 1 patient, 8 MBq per cycle) is listed as 100%. For the same substance, the Major toxicity ([3]; 1 patient, 8 MBq per cycle) was “xerostomia”, the “Main TAT-related side effect” value ([3]; already preexisting after 10 cycles of RLT) was “grade 2 xerostomia” and the Hematological side effects ([3]; human, in vivo) was “No TAT-related grade 3/4 hematological side effects”. For the same substance, the Response ([3]; two cycles after failure of ^177Lu-PSMA-617) was “encouraging response”, the “Absorbed dose, left kidney” value ([4]; 8.1 MBq, SPECT at 24 h p. i.) was 0.18 SV(RBE=5)MBq and the “Absorbed dose, right kidney” value ([4]; 8.1 MBq, SPECT at 24 h p. i.) was 0.17 SV(RBE=5)MBq. For the same substance, the “Absorbed dose, small lesion in the right hip” value ([4]; human, in vivo) was 0.26 SV(RBE=5)MBq, the “Grade 3 anemia after TAT” value ([5]; 2 of them with grade 2 anemia at baseline) was 3 of the 14 patients and the “Biochemical response PSA50” value ([5]; 14 patients, 7.8 MBq per cycle) was 50%. The “Grade 1 nephrotoxicity” value ([5]; 14 patients, FIG. 13) was “one”, the Hematologic toxicity ([5]; 14 patients, FIG. 13) was “mild” and the “Acute toxicity during hospitalization” value ([5]; 14 patients) was “No acute toxicity”. The “Best PSA response after TAT (PSA decline ≥50%)” value ([5]; 14 patients) was 7 patients, the “Grade 3 leukopenia” value ([5]; 14 patients) was 1 patient and the Major toxicity ([5]; 14 patients) was “xerostomia”. The “Newly diagnosed grade 1 or 2 xerostomia after TAT” value ([5]; 14 patients) was 5 patients, the “No PSA decline at any time” value ([5]; 14 patients) was “Three” and the “No xerostomia at all” value ([5]; 14 patients) was “One”. The “PSA decline of any amount” value ([5]; 14 patients) was 11 patients, the “Preexisting xerostomia after ^177Lu-PSMA, no worsening after TAT” value ([5]; 14 patients) was “Eight” and the “Any PSA decline” value [5, 6] was 8 patients. For the same substance, the “PSA decline of at least 50%” value [5, 6] was 5 patients, the “Any PSA decline” value [5, 7] was 73% and the “PSA decline ≥50%” value [5, 7] was 45%.
